# Data from patent US12479843B2, “Spiro ring-containing quinazoline compounds” (WIGEN BIOMEDICINE TECHNOLOGY (SHANGHAI) CO., LTD., priority 2019, dated 2025).
# Experiments:
# [1] = test system: H358 cells; test: Antiproliferative activity against H358 cells (Cell Titer Glow, ultra-low attachment plate); assay type: cell-based; details: Homo sapiens, NCI-H358, 72 h, 96-well ultra-low attachment plate, three days after addition of compound, Cell Titer Glow
# Protocol: 2500 H358 cells were seeded in a 96-well ultra-low attachment plate (corning, 7007). After one day of growth, a serially diluted compound (a maximum concentration of 5 μM, 5-fold dilution, a total of five doses) was added. Three days after the addition of the compound, Cell Titer Glow (Promega, G9681) was added to evaluate pellet growth, and the IC50 value was calculated.
# [2] = test system: pERK level in H358 cells; test: pERK and ERK protein content assay in H358 cells (ELISA); assay type: cell-based; details: Homo sapiens, NCI-H358, compound 1 μM, 24 h, pERK/ERK ratio compared with DMSO group, read-out: Inhibition rate (%) of pERK level
# Method in brief: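 H358 cells grown one day, then treated 24 h with compound at 1 μM. pERK and ERK in lysates measured by ELISA; pERK/ERK ratio expressed as percent inhibition versus DMSO.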
Compound,IC50 [1] [nM],inhibition at 1 µM [2] [%]
C=CC(=O)N1CC2(CCN(c3nc(N4CC[C@H](N5CCC(F)(F)C5)C4)nc4c(OCC(F)(F)F)c(-c5c(C)ccc6[nH]ncc56)c(C5CC5)cc34)CC2)C1 [Compound 199],300 to 1000,> 90
C=CC(=O)N1CC2(CCN(c3nc(N4CC[C@@H](N5CC(OC)C5)C4)nc4c(OCC(F)(F)F)c(-c5c(C)ccc6[nH]ncc56)c(C5CC5)cc34)CC2)C1 [Compound 204],300 to 1000,> 90
C=CC(=O)N1CC2(CCN(c3nc(N4CC[C@H](N5CC(F)(F)C5)C4)nc4c(OCC(F)(F)F)c(-c5c(C)ccc6[nH]ncc56)c(C5CC5)cc34)CC2)C1 [Compound 205],300 to 1000,50 to 90
C=CC(=O)N1CC2(CCN(c3nc(N4CC[C@@H](N5CC(F)(F)C5)C4)nc4c(OCC(F)(F)F)c(-c5c(C)ccc6[nH]ncc56)c(C5CC5)cc34)CC2)C1 [Compound 206],300 to 1000,50 to 90
C=CC(=O)N1CC2(CCN(c3nc(N4CC[C@H](N5CCC(OC)CC5)C4)nc4c(OCC(F)(F)F)c(-c5c(C)ccc6[nH]ncc56)c(C5CC5)cc34)CC2)C1 [Compound 213],300 to 1000,50 to 90
C=CC(=O)N1CC2(CCN(c3nc(N4CC[C@@H](N5CCC(OC)CC5)C4)nc4c(OCC(F)(F)F)c(-c5c(C)ccc6[nH]ncc56)c(C5CC5)cc34)CC2)C1 [Compound 214],300 to 1000,50 to 90
C=CC(=O)N1CC2(CCN(c3nc(N4CC(N5CCC5)C4)nc4c(OCC(F)(F)F)c(-c5c(C)c(C)cc6[nH]ncc56)c(C5CC5)cc34)CC2)C1 [Compound 217],< 300,> 90
C=CC(=O)N1CC2(CCN(c3nc(N4CC(N5CCCC5)C4)nc4c(OCC(F)(F)F)c(-c5c(C)c(C)cc6[nH]ncc56)c(C5CC5)cc34)CC2)C1 [Compound 218],< 300,> 90
C=CC(=O)N1CC2(CCN(c3nc(N4CC(N5CCC5)C4)nc4c(OCC(F)(F)F)c(-c5c(C)c(F)cc6[nH]ncc56)c(C5CC5)cc34)CC2)C1 [Compound 219],< 300,> 90
C=CC(=O)N1CC2(CCN(c3nc(N4CC(N5CCCC5)C4)nc4c(OCC(F)(F)F)c(-c5c(C)c(F)cc6[nH]ncc56)c(C5CC5)cc34)CC2)C1 [Compound 220],< 300,> 90
C=CC(=O)N1CC2(CCN(c3nc(N4CC(N5CCC5)C4)nc4c(OCC(F)(F)F)c(-c5c(C)c(C)cc6[nH]ncc56)c(C=C)cc34)CC2)C1 [Compound 221],< 300,> 90
C=CC(=O)N1CC2(CCN(c3nc(N4CC(N5CCCC5)C4)nc4c(OCC(F)(F)F)c(-c5c(C)c(C)cc6[nH]ncc56)c(C=C)cc34)CC2)C1 [Compound 222],< 300,> 90
C=CC(=O)N1CC2(CCN(c3nc(N4CC(N5CCC5)C4)nc4c(OCC(F)(F)F)c(-c5c(C)c(F)cc6[nH]ncc56)c(C=C)cc34)CC2)C1 [Compound 223],< 300,> 90
C=CC(=O)N1CC2(CCN(c3nc(N4CC(N5CCCC5)C4)nc4c(OCC(F)(F)F)c(-c5c(C)c(F)cc6[nH]ncc56)c(C=C)cc34)CC2)C1 [Compound 224],< 300,> 90
C=CC(=O)N1CC2(CCN(c3nc(N(C)CCN(C)C)nc4c(OCC(F)(F)F)c(-c5c(C)ccc6[nH]ncc56)c(C5CC5)cc34)CC2)C1 [Compound 225],< 300,> 90
C=CC(=O)N1CC2(CCN(c3nc(N(C)CCN4CCC4)nc4c(OCC(F)(F)F)c(-c5c(C)ccc6[nH]ncc56)c(C5CC5)cc34)CC2)C1 [Compound 226],< 300,> 90
C=CC(=O)N1CC2(CCN(c3nc(N(C)CCN4CC(C)C4)nc4c(OCC(F)(F)F)c(-c5c(C)ccc6[nH]ncc56)c(C5CC5)cc34)CC2)C1 [Compound 227],< 300,> 90
C=CC(=O)N1CC2(CCN(c3nc(N(C)CCN4CC(F)C4)nc4c(OCC(F)(F)F)c(-c5c(C)ccc6[nH]ncc56)c(C5CC5)cc34)CC2)C1 [Compound 228],< 300,> 90
C=CC(=O)N1CC2(CCN(c3nc(N(C)CCN4CC(O)C4)nc4c(OCC(F)(F)F)c(-c5c(C)ccc6[nH]ncc56)c(C5CC5)cc34)CC2)C1 [Compound 229],< 300,> 90
C=CC(=O)N1CC2(CCN(c3nc(N(C)CCN4CC(OC)C4)nc4c(OCC(F)(F)F)c(-c5c(C)ccc6[nH]ncc56)c(C5CC5)cc34)CC2)C1 [Compound 230],300 to 1000,50 to 90
C=CC(=O)N1CC2(CCN(c3nc(N(C)CCN4CC(C#N)C4)nc4c(OCC(F)(F)F)c(-c5c(C)ccc6[nH]ncc56)c(C5CC5)cc34)CC2)C1 [Compound 231],300 to 1000,50 to 90
C=CC(=O)N1CC2(CCN(c3nc(N(C)CCN4CCCC4)nc4c(OCC(F)(F)F)c(-c5c(C)ccc6[nH]ncc56)c(C5CC5)cc34)CC2)C1 [Compound 232],< 300,> 90
C=CC(=O)N1CC2(CCN(c3nc(N(C)CCN4CC[C@H](C)C4)nc4c(OCC(F)(F)F)c(-c5c(C)ccc6[nH]ncc56)c(C5CC5)cc34)CC2)C1 [Compound 233],< 300,> 90
C=CC(=O)N1CC2(CCN(c3nc(N(C)CCN4CC[C@H](O)C4)nc4c(OCC(F)(F)F)c(-c5c(C)ccc6[nH]ncc56)c(C5CC5)cc34)CC2)C1 [Compound 234],< 300,> 90
C=CC(=O)N1CC2(CCN(c3nc(N(C)CCN4CC[C@H](OC)C4)nc4c(OCC(F)(F)F)c(-c5c(C)ccc6[nH]ncc56)c(C5CC5)cc34)CC2)C1 [Compound 235],< 300,> 90

# Further lines, with some results ahead:
IC50 [1] [nM],Compound,inhibition at 1 µM [2] [%]
< 300,C=CC(=O)N1CC2(CCN(c3nc(N4CC[C@@H](N5CC[C@H](F)C5)C4)nc4c(OCC(F)(F)F)c(-c5c(C)ccc6[nH]ncc56)c(C5CC5)cc34)CC2)C1 [Compound 192],> 90
< 300,C=CC(=O)N1CC2(CCN(c3nc(N4CC[C@H](N5CC[C@@H](F)C5)C4)nc4c(OCC(F)(F)F)c(-c5c(C)ccc6[nH]ncc56)c(C5CC5)cc34)CC2)C1 [Compound 193],> 90
< 300,C=CC(=O)N1CC2(CCN(c3nc(N4CC[C@@H](N5CC[C@@H](F)C5)C4)nc4c(OCC(F)(F)F)c(-c5c(C)ccc6[nH]ncc56)c(C5CC5)cc34)CC2)C1 [Compound 194],> 90
< 300,C=CC(=O)N1CC2(CCN(c3nc(N4CC[C@H](N5CC[C@H](OC)C5)C4)nc4c(OCC(F)(F)F)c(-c5c(C)ccc6[nH]ncc56)c(C5CC5)cc34)CC2)C1 [Compound 195],> 90
< 300,C=CC(=O)N1CC2(CCN(c3nc(N4CC[C@@H](N5CC[C@H](OC)C5)C4)nc4c(OCC(F)(F)F)c(-c5c(C)ccc6[nH]ncc56)c(C5CC5)cc34)CC2)C1 [Compound 196],> 90
< 300,C=CC(=O)N1CC2(CCN(c3nc(N4CC[C@H](N5CC[C@@H](OC)C5)C4)nc4c(OCC(F)(F)F)c(-c5c(C)ccc6[nH]ncc56)c(C5CC5)cc34)CC2)C1 [Compound 197],> 90
< 300,C=CC(=O)N1CC2(CCN(c3nc(N4CC[C@@H](N5CC[C@@H](OC)C5)C4)nc4c(OCC(F)(F)F)c(-c5c(C)ccc6[nH]ncc56)c(C5CC5)cc34)CC2)C1 [Compound 198],> 90
< 300,C=CC(=O)N1CC2(CCN(c3nc(N4CC[C@@H](N5CC(F)C5)C4)nc4c(OCC(F)(F)F)c(-c5c(C)ccc6[nH]ncc56)c(C5CC5)cc34)CC2)C1 [Compound 202],> 90
< 300,C=CC(=O)N1CC2(CCN(c3nc(N4CC[C@H](N5CCCCC5)C4)nc4c(OCC(F)(F)F)c(-c5c(C)ccc6[nH]ncc56)c(C5CC5)cc34)CC2)C1 [Compound 207],> 90
< 300,C=CC(=O)N1CC2(CCN(c3nc(N4CC[C@@H](N5CCCCC5)C4)nc4c(OCC(F)(F)F)c(-c5c(C)ccc6[nH]ncc56)c(C5CC5)cc34)CC2)C1 [Compound 208],> 90
< 300,C=CC(=O)N1CC2(CCN(c3nc(N4CC[C@H](N5CCOCC5)C4)nc4c(OCC(F)(F)F)c(-c5c(C)ccc6[nH]ncc56)c(C5CC5)cc34)CC2)C1 [Compound 209],> 90
< 300,C=CC(=O)N1CC2(CCN(c3nc(N4CC[C@@H](N5CCOCC5)C4)nc4c(OCC(F)(F)F)c(-c5c(C)ccc6[nH]ncc56)c(C5CC5)cc34)CC2)C1 [Compound 210],> 90
< 300,C=CC(=O)N1CC2(CCN(c3nc(N4CC[C@H](N5CCC(F)CC5)C4)nc4c(OCC(F)(F)F)c(-c5c(C)ccc6[nH]ncc56)c(C5CC5)cc34)CC2)C1 [Compound 211],> 90
< 300,C=CC(=O)N1CC2(CCN(c3nc(N4CC[C@@H](N5CCC(F)CC5)C4)nc4c(OCC(F)(F)F)c(-c5c(C)ccc6[nH]ncc56)c(C5CC5)cc34)CC2)C1 [Compound 212],> 90
< 300,C=CC(=O)N1CC2(CCN(c3nc(N4CCC(N5CCC5)CC4)nc4c(OCC(F)(F)F)c(-c5c(C)ccc6[nH]ncc56)c(C5CC5)cc34)CC2)C1 [Compound 215],> 90
< 300,C=CC(=O)N1CC2(CCN(c3nc(N4CCC(N5CCCC5)CC4)nc4c(OCC(F)(F)F)c(-c5c(C)ccc6[nH]ncc56)c(C5CC5)cc34)CC2)C1 [Compound 216],> 90
